Entries after “also recorded” stand apart in the source; their conditions may differ. Read-outs that look alike come from different tables or passages of the source.
What was measured:
[1] = cited from earlier work
COX (cyclooxygenase) = conditions: cited from earlier work
[2] = test system: AOM-treated rat model of colon carcinogenesis; conditions: in vivo; cited from earlier work
[3] = cited from earlier work; remark: listed apart in the source
[4] = test system: tumors harboring Ki-ras mutations in AOM-treated rats; conditions: cited from earlier work
[5] = test system: colorectal adenomas/polyps; conditions: cited from earlier work
[6] = test system: colorectal adenomas/polyps; test: Sulindac effect on colorectal adenomas/polyps in patients; conditions: randomized phase IIb
[7] = sulindac 400 mg per day; cited from earlier work
[8] = test system: AOM-treated rat model of colon carcinogenesis; test: Colon carcinogenesis in the AOM-treated rat / rodent model; conditions: sulfoxide and sulfone forms
Caco-2 parental cells = test: Induction of apoptosis (light microscopy) in Caco-2 parental cells; type: cell-based, human; conditions: Caco-2 parental
Experimental: (§1) FIG. 3. […] Apoptosis was determined by light microscopy.
(§2) FIG. 8. […] Cells were grown over a period of 6 days. Cells were harvested at various days (0, 2, 4 and 6 days), spun onto slides and stained. Apoptosis was determined by light microscopy. Percentage of apoptotic cells was calculated as the number of apoptotic cells out of the total cells counted times 100. At least 500 cells were counted for each sample.
(§3) Cells were grown over a period of 6 days. Cells were harvested at various days (0, 2, 4 and 6 days), spun onto slides and stained. Apoptosis was determined by light microscopy. Percentage of apoptotic cells was calculated as the number of apoptotic cells out of the total cells counted times 100.

Ki-ras clone #60 cells = test: Clonogenic assay (colony-forming efficiency), Ki-ras clone 60; type: cell-based, human; conditions: with or without DFMO; normalized survival
Ki-ras clone #60 = test: Induction of apoptosis (light microscopy) in Ki-ras clone 60; type: cell-based, human
Experimental: as §1, §2, §3

[9] = test system: Caco-2 parental cells, Ki-ras clone #60 and Ki-ras clone #66; test: Viable cell number (trypan blue dye exclusion), growth of Caco-2 parental and Ki-ras transfected cells; type: cell-based, human
Experimental: Effect of sulindac sulfide and sulfone on the growth of Ki-ras transfected cells. […] Viable cell number was determined by trypan blue dye exclusion.
Caco-2 cells were maintained in Modified Eagle Media (GIBCO, Grand Island, N.Y.) supplemented with 10% fetal bovine serum and a 1% penicillin (10,000 units/ml)-streptomycin (10,000 mg/ml) solution (GIBCO, Grand Island, N.Y.). Transfected Caco-2 cells resistant to neomycin were maintained in 400 μg/ml G418. Cells were maintained at 37° in the presence of 5% CO2 in air.
All cells were passed into new medium every two to three days, just prior to confluence. Drug additions were performed at the time of cell seeding and in MEM for each cell line unless otherwise noted. […] The two metabolites of sulindac, sulindac sulfone and sulfide, were obtained from Cell Pathways, Inc. (Horsham Pa.).
Caco-2 cells were removed from the monolayer by treatment with trypsin (1500 units/ml, Calbiochem, San Diego, Calif.)-EDTA (.7mM) and counted using a hemocytometer. A sample of the cell suspension was combined in a 1:1 volume ratio with trypan blue dye (GIBCO, Grand Island, N.Y.), and at least two independently prepared suspensions were counted on a hemocytometer, two counts each. For all cell types, viability was determined by the percentage of cells able to exclude the trypan blue dye.

[10] = test system: carcinogenesis in rodent/animal models; conditions: in vivo; cited from earlier work
[11] = test system: Ki-ras transfected Caco-2 cells; test: Induction of apoptosis in Ki-ras transfected versus parental Caco-2 cells; type: cell-based, human; conditions: 120 μM sulfide, 600 μM sulfone
Experimental: as §1

[12] = test system: Ki-ras codon 12 mutations in the AOM-treated rat; test: Ki-ras codon 12 mutations in colon tumors of AOM-treated rats (PCR-RFLP); type: in vivo; conditions: 0-1000 ppm in the food
Source text: A PCR™-RFLP assay is used to screen for codon 12 mutations in Ki-ras in colon adenocarcinomas from AOM-treated rats, because more than 60% of Ki-ras mutations in these tumors occur at this site (Jiang et al., 1989). PCR™ will be performed using primers designed to create a BstN1 restriction endonuclease site at codon 12 of the Ki-ras gene as described (Searle et al., 1982) a G→C change made at codon 11.3 bp from the 3' end of the wildtype upstream primer: 5'[…]-3') Ki-ras mutations are determined by whether a change had occurred in the BsN1 site. If a mutation had occurred, no change in base pair length from uncut PCR™ fragments would occur. Restriction enzyme digested PCR™ products were electrophoresed on a 3.5% agarose gel, stained with ethidium bromide, and visualized under […] UV trans-illumination for the presence of mutations.
Putative Ki-ras mutations detected by this assay method in colon adenocarcinomas obtained from AOM-treated rats will be confirmed by DNA sequencing methods.

[13] = test system: Caco-2 and clone 60 cells; test: Clonogenic assay (colony-forming efficiency), Caco-2 and clone 60 cells; type: cell-based, human
tumor cells = conditions: cited from earlier work
[14] = 600 μM sulfone vs 120 μM sulfide

Compound: CC1=C(CC(=O)O)c2cc(F)ccc2/C1=C\c1ccc([S+](C)[O-])cc1 (stereo not drawn) [sulindac, (Z)-5-Fluoro-2-methyl-1-((4 (methylsulfinyl)phenyl)methylene) 1H-indene-3-acetic acid]
- borderline elevations in one or more liver function test ([1]; human, in vivo): 15 % of clinical trial patients
- gastrointestinal toxicity / ulceration ([1]; human, in vivo): serious gastrointestinal toxicity such as bleeding, ulceration, and perforation
- meaningful elevations in liver function test (3 times upper limit of normal) ([1]; human, in vivo): less than 1%
- mild gastrointestinal effects ([1]; human, in vivo): ~20 % of patients
- skin rash and pruritus ([1]; human, in vivo): 5 % of patients
- gastrointestinal toxicity / ulceration ([1]; human, in vivo, listed as Sulindac): G.I. ulceration that in general is dose-related; also recorded: can produce gastric irritation and bleeding
- granulocytosis, aplastic anemia, hemolytic anemia ([1]; rare adverse effects): less than 1%
- gastrointestinal pain ([1]; therapeutic doses): 10%
- COX / prostaglandin synthesis inhibition (COX (cyclooxygenase)): inhibit cycloxygenase and prostaglandin synthesis
- apoptosis in AOM-treated rodent model [2]: cause apoptosis
- inhibition of colon carcinogenesis in AOM-treated rat model [2]: effectively inhibit colon carcinogenesis
- time of peak plasma levels ([3]; fasting patients): about 2 hours
- half-life ([3]; human, in vivo, po): 7 h
- mean half-life ([3]; human, in vivo, po): 7.8 h
- absorption of drug ([3]; oral administration): about 90%
- Ki-ras mutation / tumors harboring an activated Ki-ras [4]: reduces the number of tumors harboring an activated Ki-ras
- regression of adenomas in FAP patients ([5]; FAP patients): regression of adenomas
- clinical regression of polyps ([5]; several studies): can cause clinical regression of polyps
- effect on sporadic adenomas ([5]; sporadic adenomas): no such effect
- 150 mg per day vs. twice per day [6]: comparable results
- safety in phase IIb study [6]: safe
- polyp regression and development of new polyps ([6]; 150 mg per day or twice per day): regression of extant polyps shown
- analgesic and antiinflamatory effects [7]: comparable to those achieved by aspirin (4 g per day), ibuprofin (1200 mg per day), indomethacin (125 mg per day), and phenylbutazone (400 to 600 mg per day)
- inhibition of carcinogenesis in the AOM-treated rat [8]: inhibit carcinogenesis in the AOM-treated rat, with similar potencies

Compound: CC1=C(CC(=O)O)c2cc(F)ccc2/C1=C\c1ccc(S(C)(=O)=O)cc1 [sulindac sulfone]
- COX / prostaglandin synthesis inhibition (COX (cyclooxygenase)): does not
- COX / prostaglandin synthesis inhibition (COX (cyclooxygenase); listed as Sulindac sulfone): lacks COX-inhibitory activity
- induction of apoptosis, sulfone compared with sulfide (Caco-2 parental cells; [14]): more pronounced than with the sulfide
- time of peak apoptosis (Caco-2 parental cells; 600 μM sulindac sulfone): 8 days
- resistance of clone 60 to sulindac sulfone (Ki-ras clone #60 cells): slightly more resistant to the effects of sulindac sulfone than the parental cells
- induction of apoptosis, sulfone compared with sulfide (Ki-ras clone #60; [14]): more pronounced than with the sulfide
- time of peak apoptosis (Ki-ras clone #60; 600 μM sulindac sulfone): 6 days
- Ki-ras selective toxicity / Ki-ras-specific effect on growth ([9]; 120 μM sulindac sulfide or 600 μM sulindac sulfone): nor did sulindac sulfide or sulfone exert a Ki-ras-specific effect on growth
- number of viable cells ([9]; 600 μM sulindac sulfone): pronounced cell loss beginning 6 days after treatment
- chemoprevention / inhibition of tumor development in animal models [10]: inhibits tumor development in several rodent models of carcinogenesis
- onset of apoptosis in Ki-ras transfected cells compared with parental cells [11]: accelerate the onset of apoptosis; also recorded: occurred several days earlier in Ki-ras transfected cells than in parental cells
- dose-dependency of Ki-ras mutation reduction [12]: some indication of dose-dependency
- frequency of AOM-induced codon 12 mutations in Ki-ras ([12]; from 19/31 (61%)): 14%
- incidence of AOM-induced codon 12 mutations in Ki-ras ([12]; from 19/31 (61%)): 5/35
- IC50 ([13]; Homo sapiens, Caco-2, 24 h treatment, replated, colony formation, read-out: 50% decrease in cell number): ~800 µM
- effect of Ki-ras activation on viability / colony-forming efficiency after sulindac metabolite ([13]; increasing concentrations, 24 h): did not reveal any differences in colony-forming efficiency between Ki-ras transfectants and parental Caco-2 cells
- inhibition of carcinogenesis in the AOM-treated rat [8]: inhibit carcinogenesis in the AOM-treated rat, with similar potencies
- induction of apoptosis in tumor cells (tumor cells): induces apoptosis in tumor cells

Reference: patent US6258845A (priority 1999, dated 2001)
